Molecular target: Small conductance calcium-activated potassium channel protein 2 (Rattus norvegicus, UniProt P70604)
Assay: Potentiation of rat KCa2.2a expressed in HEK293 cells assessed as increase in calcium response at -90 mV holding potential measured at 1 to 2 days by patch clamp electrophysiology

Sequence of Small conductance calcium-activated potassium channel protein 2 (P70604 whole entry): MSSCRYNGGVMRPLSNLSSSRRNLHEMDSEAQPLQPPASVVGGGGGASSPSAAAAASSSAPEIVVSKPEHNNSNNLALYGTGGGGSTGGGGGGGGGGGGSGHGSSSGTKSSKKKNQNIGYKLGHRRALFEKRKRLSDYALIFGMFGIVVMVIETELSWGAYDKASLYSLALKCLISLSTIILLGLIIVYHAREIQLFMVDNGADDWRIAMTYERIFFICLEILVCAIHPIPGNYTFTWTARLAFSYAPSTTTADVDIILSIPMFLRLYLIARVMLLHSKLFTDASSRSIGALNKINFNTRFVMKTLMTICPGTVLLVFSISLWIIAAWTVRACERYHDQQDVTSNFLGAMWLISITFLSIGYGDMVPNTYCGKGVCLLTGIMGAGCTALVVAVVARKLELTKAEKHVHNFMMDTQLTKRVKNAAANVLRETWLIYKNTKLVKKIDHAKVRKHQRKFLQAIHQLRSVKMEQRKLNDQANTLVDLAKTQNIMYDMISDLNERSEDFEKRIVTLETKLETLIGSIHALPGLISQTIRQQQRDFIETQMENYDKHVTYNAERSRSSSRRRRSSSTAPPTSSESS

SMILES	EC50
Cc1cc(Nc2ccc(F)c(Cl)c2)nc(-n2nc(C)cc2C)n1	110 nM
Cc1cc(Nc2cc(Cl)ccc2F)nc(-n2nc(C)cc2C)n1	91 nM

From BindingDB's records for doi:10.1021/acs.jmedchem.1c01473 (Chapman University School of Pharmacy, 2022)
